Molecules are shown by their SMILES.

By Ki is commonly meant the dissociation constant of the complex between target and ligand, obtained from inhibition or displacement. Low values mean a stronger hold on the target, high ones a looser hold on the target.

The target in the assay is T1, full length Aurora-A (AA 1-403) (Homo sapiens, UniProt O14965).
T1 sequence (O14965 1-403): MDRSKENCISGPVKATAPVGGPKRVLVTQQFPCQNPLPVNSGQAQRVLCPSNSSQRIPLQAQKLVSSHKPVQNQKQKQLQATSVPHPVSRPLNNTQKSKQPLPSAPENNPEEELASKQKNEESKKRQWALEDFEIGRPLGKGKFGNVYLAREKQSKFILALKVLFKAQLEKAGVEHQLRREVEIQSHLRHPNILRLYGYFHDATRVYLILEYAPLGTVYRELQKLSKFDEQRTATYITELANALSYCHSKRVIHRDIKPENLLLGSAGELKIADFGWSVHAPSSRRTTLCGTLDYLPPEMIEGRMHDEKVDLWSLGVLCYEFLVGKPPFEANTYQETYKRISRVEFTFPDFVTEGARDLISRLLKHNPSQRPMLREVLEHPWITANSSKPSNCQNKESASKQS
Kind of assay: AuroraA Inhibition Assay (coupled enzyme system). Conditions: 200 μM ATP, 800 μM peptide LRRASLG, 35 nM Aurora-A, 30° C. Format: biochemical. On the procedure: Compounds were screened for their ability to inhibit full length Aurora-A (AA 1-403) activity using a standard coupled enzyme system (Fox et al., Protein Sci., 7, pp. 2249 (1998)). Reactions were carried out in a solution containing 100 mM HEPES (pH 7.5), 10 mM MgCl2, 25 mM NaCl, 300 μM NADH, 1 mM DTT and 3% DMSO. Final substrate concentrations in the assay were 200 μM ATP (Sigma Chemicals, St Louis, Mo.) and 800 μM peptide (LRRASLG, American Peptide, Sunnyvale, Calif.). Reactions were carried out at 30° C. and 35 nM Aurora-A. Final concentrations of the components of the coupled enzyme system were 2.5 mM phosphoenolpyruvate, 200 μM NADH, 60 μg/ml pyruvate kinase and 20 μg/ml lactate dehydrogenase.
An assay stock buffer solution was prepared containing all of the reagents listed above with the exception of ATP and the test compound of interest. The assay stock buffer solution (60 μl) was incubated in a 96 well plate with 2 μl of the test compound of interest at final concentrations spanning 0.002 μM to 30 μM at 30° C. for 10 min. […] Rates of reaction were obtained using a Molecular Devices Spectramax plate reader (Sunnyvale, Calif.) over 10 min at 30° C. The Ki values were determined from the rate data as a function of inhibitor concentration using computerized nonlinear regression (Prism 3.0, Graphpad Software, San Diego, Calif.).

`C[C@H](Nc1nc(-c2c[nH]c3ncc(Cl)nc23)ncc1F)c1ccc(F)cc1` [Compound I-28] showed a Ki below 200 nM.

The compound `Clc1cnc2[nH]cc(-c3cccc(Br)c3)c2n1` [Compound I-1, 7-(3-Bromo-phenyl)-2-chloro-5H-pyrrolo[2,3-b]pyrazine] came in with a Ki below 200 nM.

The values above are taken from patent publication US7795259B2, “Pyrrolopyrazines and pyrazolopyrazines useful as inhibitors of protein kinases” (Vertex Pharmaceuticals Incorporated, priority 2004, dated 2010).
